# Laboratory results published in patent US11591331B2, “PARP1 inhibitors and uses thereof” (Xinthera, Inc., priority 2021, dated 2023).
# Assays:
# [1] = In vitro human hepatic clearance in cellular relay format; type: in vitro ADME; conditions: cryopreserved hepatocytes in suspension (relay format); human hepatocytes relay, 5 incubations of 4 hrs, 0.5E+06 viable cells/mL
# Description: (§1) Example C: In Vitro Human Hepatic Clearance in Cellular Relay Format
# (§2) Working stocks of individual test articles were prepared at concentrations of 100 μM by diluting 10 mM stocks prepared in DMSO 100-fold (v:v) into ACN/1H2O (50/50, v:v). Human cryopreserved hepatocytes were thawed in a 37° C. water bath in <2 min., suspended in thawing media, and then centrifuged at 100×g for 10 min. Thawing media was aspirated, and pelleted hepatocytes were resuspended into incubation media at 1.5E+06 cells/mL. Cell viability was determined using an Acridine Orange/Propidium Iodine stain, and hepatocytes were further diluted with incubation media to 0.5E+06 viable cells/mL. Hepatocyte aliquots of 495 μL were added to wells of a 24-well plate, and test article incubations were initiated by the addition of 5 μL of 100 μM working stocks. Plates were incubated at 37° C. in a 5% CO2 atmosphere at 95% relative humidity on an orbital shaker at 300 rpm. Incubations were performed in duplicate. At time=0 and 4 hrs., aliquots of each incubation were extracted with 6 volumes ACN containing internal standards. After 4 hrs., hepatocytes were removed from the incubations via centrifugation, and supernatants were stored frozen until the following day at which point incubations were reinitiated by diluting thawed supernatants with freshly thawed hepatocytes in incubation media, again to a final concentration of 0.5E+06 viable cells/mL. These steps were repeated for a total of 5 incubations of 4 hrs. each covering 20 total hours of incubation. Incubational losses due to cellular uptake, nonspecific binding, and dilution at each relay step were corrected for. Supernatants of all incubation aliquots were diluted into ultrapure water prior to analysis via LC/MS/MS. In vitro intrinsic clearances (CLint) in μL/min/IE+06 cells were determined for each incubation from calculated in vitro half-lives determined using a standard log-linear regression approach. In vitro CLint values were scaled up using the following physiological scaling factors: 99E+06 cells/g human liver and 25.7 g human liver/kg body weight. Scaled intrinsic clearance values were finally introduced to the well-stirred liver model for the purpose of calculating predicted human hepatic clearance (CLhep,pred) in mL/min/kg assuming a human liver blood flow of 20.7 mL/min/kg and making no corrections for test article binding to red blood cells, plasma proteins, or components of the incubation system. S-Warfarin, Disopyramide and Diazepam were used as assay controls.
# [2] = system: Human cryopreserved hepatocytes; assay: as above; type: in vitro ADME; conditions: predicted human hepatic clearance, well-stirred liver model, scaled from in vitro CLint
# Description: as §1, §2
# DLD-1 parental = assay: Cell growth inhibition assay (CellTiter-Glo cell viability, 7 days); type: cell-based; conditions: Homo sapiens, 168 h, DLD-1 parental cells
# From the text: Example A: Cell Growth Inhibition Assay
# The objective of this study is to evaluate the effect of invention compounds on cell proliferation through the cell viability assay in DLD-1 BRCA2(−/−) and parental isogenic pair and MDA-MB-436 (mutated BRCA1) cell lines. The CellTiter-Glo (CTG) based cell viability assay is designed to determine the number of viable cells in the culture because of compound effect, by quantifying ATP, which indicates the presence of metabolically active cells.
# DLD-1 BRCA2(−/−) and parental isogenic pair were cultured in RPMI 1640 supplemented with 10% fetal bovine serum (FBS), and MDA-MB-436 cells were cultured in DMEM supplemented with 10% FBS. Both are culture at 37° C. with 5% CO2. Invention compounds were distributed to the 384 well plate (Corning, 3764) using Echo acoustic liquid handler to form a 1:3 serially diluted final concentration with top dose of 10 or 30 μM. The cells were seeded into the plate in the density of 50 cells/well (DLD-1 parental), 200 cells/well (DLD-1 BRCA2−/−), or 500 cells/well (MDA-MB-436). After a short spun, the cells were cultured in a well moisturized incubator at 37° C. with 5% CO2 for 7 days without disturbance. The cell viability was measured by CellTiter Glo 2.0 assay kit (Promega, G9243), and growth inhibition rate was calculated and plotted against final compound concentration, and the data were fitted in Xfit to generate IC50.
# [3] = system: MDA-MB-436 (mutated BRCA1) cell lines; assay: as above; type: cell-based; conditions: Homo sapiens, 168 h, MDA-MB-436 cells
# DLD-1 BRCA2(−/−) = assay: as above; type: cell-based; conditions: Homo sapiens, 168 h, DLD-1 BRCA2(-/-) cells
Compound,half-life at 1 µM [1] [h],"Clhep,pred [2] [L/h/kg]",EC50 (DLD-1 parental) [µM],EC50 [3] [µM],EC50 (DLD-1 BRCA2(−/−)) [µM]
CCc1cc2ncc(CN3CCN(c4ccc(C(=O)NC)nc4)CC3)cc2[nH]c1=O [AZD5305],31.8,0.101,,,
"CCc1cc2ncc(CN3CCN(c4ccc(C(=O)NC)nc4C#N)CC3)cc2[nH]c1=O [Example 1, 6-cyano-5-{4-[(7-ethyl-6-oxo-5H-1,5-naphthyridin-3-yl)methyl]piperazin-1-yl}-N-methylpyridine-2-carboxamide]",32.5,0.1,5000,0.00063,0.0014
"CCc1cc2ncc(CN3CCN(c4ccc(C(=O)NC)nc4)[C@H](C)C3)cc2[nH]c1=O [Example 2, 5-[(2R)-4-[(7-ethyl-6-oxo-5H-1,5-naphthyridin-3-yl)methyl]-2-methylpiperazin-1-yl]-N-methylpyridine-2-carboxamide]",31.5,0.103,> 30,0.004,0.0048
"CCc1cc2ncc(CN3CCN(c4cnc(C(=O)NC)c(F)c4)CC3)cc2[nH]c1=O [Example 5, 5-(4-((7-ethyl-6-oxo-5,6-dihydro-1,5-naphthyridin-3-yl)methyl)piperazin-1-yl)-3-fluoro-N-methylpicolinamide]",109,0.0318,470,0.0014,0.0025
"CNC(=O)c1ccc(N2CCN(Cc3cnc4cc(C5CC5)c(=O)[nH]c4c3)CC2)cn1 [Example 15, 5-{4-[(7-cyclopropyl-6-oxo-5H-1,5-naphthyridin-3-yl)methyl]piperazin-1-yl}-N-methylpyridine-2-carboxamide]",> 62.1,<0.054,> 30,0.0013,0.0018
"O=C(NC1CC1)c1ccc(N2CCN(Cc3cnc4cc(C5CC5)c(=O)[nH]c4c3)CC2)cn1 [Example 24, N-cyclopropyl-5-{4-[(7-cyclopropyl-6-oxo-5H-1,5-naphthyridin-3-yl)methyl]piperazin-1-yl}pyridine-2-carboxamide]",> 62.1,<0.054,> 30,0.0014,0.0025
CCc1cc2ncc(CN3CCN(c4ccc(C(=O)N[C@H](C)COC)nc4)CC3)cc2[nH]c1=O [Example 56],> 62.1,<0.054,,0.0022,0.0071
CCc1cc2ncc(CN3CCN(c4ccc(C(=O)NC)nc4)[C@H](CF)C3)cc2[nH]c1=O [Example 68],,,> 30,0.0015,0.0041
CNC(=O)c1ccc(N2CCN(Cc3cnc4c(c3)[nH]c(=O)c3ccoc34)CC2)cn1 [Example 72],,,> 30,0.0025,0.0042
CCc1cc2ncc(CN3C[C@@H]4C(c5ccc(C(=O)NC)nc5)[C@@H]4C3)cc2[nH]c1=O (stereo partly shown) [Example 146],,,> 30,0.0092,0.32
